The record followed here is US20230248717A1, “N-(3-HYDROXYPYRIDINE-2-CARBONYL)GLYCINE-BASED ANTITUMOR DRUG SENSITIZER AND APPLICATION THEREOF” (ZHEJIANG UNIVERSITY, priority 2019, published 2023).

Values after ≈ are worked out from the molar mass of the structure shown. Like-named read-outs stand apart in the source and are kept apart here.

The subject of assay [1] is PD-L1 expression in CT26 cells. In words: PD-L1 expression in tumor cells by Western blot. The class given is cell-based, mouse. The conditions noted are these: 5 μM, 48 h. How it is done:
CT26 cells were inoculated in a 6-well plate at 2×10^4 cells per well and placed in a 37° C. incubator. After the cells adhered, DMSO solutions (5 μM) of compounds 1 to 8 were added separately, and the incubation was continued for 48 h. The medium was discarded, the cells were rinsed three times with pre-cooled PBS, and the washing solution was discarded. 0.2 nrii, of a cell lysis solution containing a protease inhibitor was added to each well and placed on ice to conduct lysis for 30 min.
After the lysis was completed, a lysate and cell debris were scraped to one side of the Petri dish with a cell scraper, the lysate was transferred to a 1.5 mL Ep tube with a pipette, centrifuged at 4° C. (12,000 rpm/5 min), and a supernatant was collected to determine its protein concentration.
The protein sample was diluted with a 1UPAlysis buffer to a certain concentration, 5×SDS loading buffer was added in a protein amount of 1 μg/μL, incubated on a metal bath at 95° C. for 5 min, cooled to room temperature, and the sample was loaded to an SDS-PAGE electrophoresis gel (5% for stacking gel and 12% for resolving gel). Under a voltage of 90 V, the protein was run to the bottom of the stacking gel to form a straight line, then the voltage was adjusted to 125 V, and the electrophoresis was stopped after the bromophenol blue appeared. […]

Assay [2] deals with mRNA expression of PD-L1 in CT26 cells. Put plainly: PD-L1 mRNA expression in tumor cells by qPCR. The format is cell-based, mouse. The conditions noted are these: 5 μM, 48 h, GAPDH internal reference. The method, then: CT26 cells were inoculated in a 6-well plate at 2×10^5 cells per well and placed in a 37° C. incubator. After the cells adhered, DMSO solutions (5 μM) of the compounds of the present disclosure were added separately, and the incubation was continued for 48 h. Total RNA was lysed and extracted, and reverse transcription and PCR experiments were conducted to detect an RNA level of PD-L1 in CT26 cells, using a GAPDH gene as an internal reference.

Assay [3] deals with HIF-1α expression in CT26 cells. Put plainly: HIF-1α expression in tumor cells by flow cytometry. The class given is cell-based, mouse. The conditions noted are these: 5 μM, 24 h; for expression of HIF-1α in tumor cells: vs blank control. The method, then: CT26 cells were evenly plated in a 6-well plate at 2×10^4 cells per well. After the cells adhered, DMSO solutions (5 μM) of the different compounds of the present disclosure were added separately, and the incubation was continued for 24 h. The medium was discarded, the cells were rinsed three times with PBS, and 0.2 mL of trypsin containing EDTA was added to each well. The digested cells were collected in a flow tube, and a supernatant was removed by centrifugation; the cells were resuspended in a PBS containing 5% goat serum, and an FITC anti-mouse HIF-1α antibody (1 μg/1×10^6 cells) was added, incubated at 4° C. for 30 min, and washed three times with PBS, and subjected to flow detection on-machine.

Assay [4] concerns CT26 mouse colon cancer cells. In words: Cytotoxicity (MTT) in combination with chemotherapeutic drugs.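 Further: MTT read-out taken as absorbance at 562 nm after a 3 h dye incubation, medium-only wells as blank, values averaged over three independent experiments.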
Description: (§1) CT26 cells (MC38 cells, 4T1 cells, B16FIO cells, HePa1-6 cells, H22 cells, LLC cells, MB49 cells, P388 cells, C6 cells, BXPC-3 cells, Hela cells, MDA-MB-231 cells, A2780 cells. PC3 cells. HepG2 cells, and HGC-27 cells) were cultured at 5,000 cells/well in a 96-well plate, 100 μL of a medium was added to each well, and the cells were incubated in a 37° C. constant-temperature incubator with 5% CO2 and 95% humidity for 24 h. 100 μL of different concentrations of drugs (DOX: 0.01 μg/mL to 10 μg/mL; PTX: 0.01 μg/mL to 50 μg/mL; Cela: 0.05 μg/mL to 1 μg/mL; sensitizer: 5 μg/mL) were added to each well, while 100 lit of a medium solution was added to the blank group. After culturing for 48 h, centrifugation was conducted at 1,100 rpm for 6 min, the medium in each well was discarded, 100 μL of an 11,11T working solution was added, and the culturing was continued for 3 h. Centrifugation was conducted at 3,300 rpm. for 5 min, the MITT medium in each well was discarded, 100 pt, of the DMSO was added, and the plate was shaken for 5 min to dissolve all crystals in each well. An absorbance of the sample at 562 nm was detected by a microplate reader. Each set of data was an average of three independent experimental results on the same sample.
The test system of assay [5] is PD-L1 expression in CT26 cells. In words: PD-L1 expression in tumor cells by flow cytometry. The format is cell-based, mouse. The conditions noted are these: 24 h, blank group 32.7%. The method, then: CT26 cells were inoculated in a 6-well plate at 2×10^4 cells per well. After the cells adhered. […] The medium was discarded, the cells were rinsed three times with PBS, and 0.2 mL of trypsin containing EDTA was added to each well. The digested cells were collected in a flow tube, and a supernatant was removed by centrifugation. The cells were resuspended in a PBS containing 5% goat serum, and an anti-mouse PD-L1 primary antibody (1 μg/1×10^6 cells) was added, and the cells were incubated at 4° C. for 30 min and washed three times with PBS. An equivalent amount of APC-labeled goat anti-rabbit secondary antibody was added and incubation was continued for 30 min; the cells were washed 3 times with PBS and subjected to flow detection on-machine.

Assay [6] concerns calreticulin in CT26 tumor cells. In words: Drug-induced immunogenic death (calreticulin, confocal). The class given is cell-based, mouse. The conditions noted are these: doxorubicin-induced CT26 tumor cells, combination with DOX vs DOX alone, 24 h. The method, then: CT26 cells were plated in confocal culture dishes, and after overnight cell adherence, different drug treatment groups were added, and the incubation was continued for 24 h. The medium was discarded, the cells were rinsed 3 times with PBS, and fixated with 4% paraformaldehyde for 10 min. The cells were rinsed 3 times with PBS for 3 min each time, a 3% BSA solution was added for blocking for 30 min at 37° C., and the blocking solution was removed with absorbent paper. 200 μuL of a calreticulin antibody (FITC-anti-CRT, 1:200) was added to each well and incubated at room temperature for I h in the dark. The cells were rinsed with PBS 3 times for 3 min each time, then a DAPI staining solution was added to each dish and incubated in the dark for 5 min. After washing three times with PBS, the cells were observed under a laser con focal microscope.

The subject of assay [7] is Raw264.7 M2 tumor-associated macrophages (TAM2s). In words: Polarization of macrophages from M2 to M1 (PCR). The class given is cell-based, mouse. The conditions noted are these: IL-4-induced TAM2s, 5 μM, 24 h, vs untreated TAM2s. How it is done: A mouse macrophage cell line Raw264.7 was inoculated in a 24-well plate. After 12 hours of cell adhesion, the cells were further cultured for one day in a medium containing IL-4 (40 ng/mL) to induce the cells to differentiate into M2 tumor-associated macrophages (TAM2s). DMSO solutions (5 μM) of different groups of the compounds of the present disclosure were added to the TAM2s to treat for 24 h, the cells were collected and lysed, and a total RNA was extracted. The total RNA was subjected to reverse transcription and PCR experiments to detect the RNA levels of an M2 macrophage-specific protein argl and an M1 macrophage-specific protein Nos2 with an hprt gene as an internal reference.

Assay [8] relates to CT26 mouse colon cancer cells.
Description: as §1
The mark [9] stands for this setting: CT26 cell line, chemotherapeutic drug in combination with compound 7 (sensitizer 5 μg/mL), 48 h.

As to `O=C(O)CNC(=O)c1ncc(-c2cccc(Cl)c2)cc1O` [compound 6], the “expression of PD-L1 in tumor cells (Western blot)” value in assay [1] is given as “best effect”. In addition, in assay [2], the “mRNA expression level of PD-L1” value was “best effect”. In addition, the “expression of HIF-1α in tumor cells” value in assay [3] was “best effect”.

On to `CC1=C(O)C(=O)C=C2C1=CC=C1[C@@]2(C)CC[C@@]2(C)[C@@H]3C[C@](C)(C(=O)O)CC[C@]3(C)CC[C@]12C` [Tripterine], for which, in assay [4], the “IC50, Compound 7+” value stood at 1.592 ± 0.142 µg/mL and the “IC50, Compound 7−” value was 5.219 ± 0.242 µg/mL.

As for `Cc1nc(C(=O)NCC(=O)O)c(O)c2ccc(Oc3ccccc3)cc12` [compound 7, N-(4-Hydroxy-1-methyl-7-phenoxyisoquinoline-3-carbonyl)glycine], the “expression of PD-L1 in tumor cells (Western blot)” value in assay [1] is on record as “best effect”. The “mRNA expression level of PD-L1” value in assay [2] is “best effect”. This compound also had a PD-L1 expression rate in assay [5] (10 μM compound 7 group) of 18.8%. This compound also returned a PD-L1 expression rate in assay [5] (2.5 compound 7 group) of 24%. This compound also gave a PD-L1 expression rate in assay [5] (5 1μM compound 7 group) of 20.8%. Also, the “calreticulin expression (immunogenic death)” value in assay [6] is given as “express more calreticulin”. In addition, in assay [7], the “RNA level of M1 macrophage-specific protein Nos2” value is listed as “significantly increased” and the “RNA level of M2 macrophage-specific protein argl” value is listed as “significantly decreased”. Further, in assay [3], the “reduction of HIF-1α” value stood at 45% and the “expression of HIF-1α in tumor cells” value is “best effect”. In addition, the “cell viability, combination with chemotherapeutic drug DOX vs chemotherapeutic drug alone” value in assay [4] (CT26 cells, sensitizer 5 μg/mL, 48 h) is reported as “best effect”. Also, the “toxicity of doxorubicin (DOX), paclitaxel (PTX), oxaliplatin (OXA) or camptothecin (irinotecan, SN38) on CT26 cells” value in assay [4] (combination with compound 7, 48 h) is reported as “increase the toxicity”.

As to `O=C1[O][Pt]2([NH][C@@H]3CCCC[C@H]3[NH]2)[O]C1=O` [Eloxatin], the “IC50, Compound 7+” value in assay [4] (setting [9]) is 2.497 ± 0.185 µg/mL.

Compound `CCc1c2c(nc3ccc(OC(=O)N4CCC(N5CCCCC5)CC4)cc13)-c1cc3c(c(=O)n1C2)COC(=O)[C@]3(O)CC` [Irinotecan] had an IC50 in assay [8] of 2.42 ± 0.197 µg/mL (≈ 4.12 µM). In addition, the “IC50, Compound 7+” value in assay [4] (setting [9]) is 1.415 ± 0.022 µg/mL.

`CC(=O)O[C@@]12CO[C@@H]1C[C@H](O)[C@@]1(C)C(=O)[C@H](O)C3=C(C)[C@@H](OC(=O)[C@H](O)[C@@H](NC(=O)OC(C)(C)C)c4ccccc4)C[C@@](O)([C@@H](OC(=O)c4ccccc4)[C@H]21)C3(C)C` [Docetaxel]: the “IC50, Compound 7+” value in assay [4] (setting [9]) turned out to be 0.029 ± 0.005 µg/mL.

For `O=C1[O][Pt]2([NH][C@@H]3CCCC[C@H]3[NH]2)[O]C1=O` [Oxaliplatin], in assay [4], the “IC50, Compound 7+” value amounted to 0.197 ± 0.022 µg/mL and the “IC50, Compound 7−” value stood at 0.650 ± 0.009 µg/mL.

`N.N.O=C([O-])C1(C(=O)[O-])CCC1.[Pt+2]` [Carboplatin] came in with an IC50 in assay [8] of 0.761 ± 0.044 µg/mL. For the same compound, the “IC50, Compound 7+” value in assay [4] (setting [9]) came to 0.192 ± 0.052 µg/mL.

`CCc1c2c(nc3ccc(O)cc13)-c1cc3c(c(=O)n1C2)COC(=O)[C@]3(O)CC` [7-ethyl-10-hydroxycamptothecine] gave an IC50 in assay [8] of 0.066 ± 0.006 µg/mL (≈ 0.168 µM). Besides, in assay [4] (setting [9]), the “IC50, Compound 7+” value was 0.025 ± 0.001 µg/mL.

As to `CC[C@]1(O)C[C@H]2CN(CCc3c([nH]c4ccccc34)[C@@](C(=O)OC)(c3cc4c(cc3OC)N(C=O)[C@H]3[C@@](O)(C(=O)OC)[C@H](OC(C)=O)[C@]5(CC)C=CCN6CC[C@]43[C@@H]65)C2)C1` [Vincristine], inhibition in assay [8] was half-maximal at 68.2 ± 2.29 µg/mL (≈ 82.6 µM) (IC50). In addition, the “IC50, Compound 7+” value in assay [4] (setting [9]) came out at 44.312 ± 1.851 µg/mL.

For the compound `N.N.[Cl][Pt][Cl]` [Cis-platinum], in assay [8], the IC50 amounted to 1.28 ± 0.146 µg/mL. For the same compound, the “IC50, Compound 7+” value in assay [4] (setting [9]) is 0.571 ± 0.068 µg/mL.

As for `COc1cccc2c1C(=O)c1c(O)c3c(c(O)c1C2=O)C[C@@](O)(C(=O)CO)C[C@@H]3O[C@H]1C[C@H](N)[C@@H](O)[C@H](C)O1` [Epirubicin], it took 97.4 ± 3.33 µg/mL (≈ 179 µM) to reach half-maximal inhibition in assay [8] (IC50). The “IC50, Compound 7+” value in assay [4] (setting [9]) amounted to 17.125 ± 1.338 µg/mL.

With `CC(C)=CCC[C@]1(C)C=Cc2c(O)c3c(c(CC=C(C)C)c2O1)O[C@]12C(=C[C@@H]4C[C@H]1C(C)(C)O[C@@]2(C/C=C(/C)C(=O)O)C4=O)C3=O` [Gambogic acid], it took 2.18 ± 0.454 µg/mL (≈ 3.47 µM) to reach half-maximal inhibition in assay [8] (IC50). Also, the “IC50, Compound 7+” value in assay [4] (setting [9]) stood at 0.792 ± 0.181 µg/mL.

The compound `O=C1c2c(O)ccc(O)c2C(=O)c2c(NCCNCCO)ccc(NCCNCCO)c21` [Mitoxantrone] yielded a half-inhibitory concentration (IC50) in assay [8] of 2.12 ± 0.297 µg/mL (≈ 4.76 µM). In addition, the “IC50, Compound 7+” value in assay [4] (setting [9]) is 0.815 ± 0.021 µg/mL.
